Source: patent US6362369B1, “Phthalic acid diamide derivatives fluorine-containing aniline compounds as starting material, agricultural and horticultural insecticides, and a method for application of the insecticides” (Nihon Nohyaku Co., Ltd., priority 1997, dated 2002)

What was measured:
[1] = tested on: diamondback moth (Plutella xylostella); assay: Insecticidal effect on diamondback moth (Test Example 1); type: in vivo; conditions: diamondback moth; judged by the mortality criterion of Test Example 1
Procedure, shortened: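 Triplicate groups of 10 insects were scored: six days after immersion of oviposited Chinese cabbage seedlings and holding at 25 °C post air-drying, hatched larvae were counted. Mortality derived from these counts and insecticidal effect judged by a set criterion.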

[2] = tested on: rice leafroller (Cnaphalocrocis medinalis); assay: Insecticidal effect on rice leafroller (Test Example 3); type: in vivo; conditions: 500 ppm, 25° C., humidity 70%; for Insecticidal effect, Test Example 3: rice lamina immersed; for Insecticidal effect, Test Example 3 / Insecticidal effect on rice leafroller (Test Example 3), judged grade: four days after inoculation; for Insecticidal effect on rice leafroller (Test Example 3), judged grade / Insecticidal effect (Test Example 3), judged from mortality: rice lamina dip; for Insecticidal effect on rice leafroller (Test Example 3), judged grade: third-instar larvae; for Insecticidal effect (Test Example 3), judged from mortality: 4 days after inoculation
Experimental: Insecticidal effect on rice leafroller (Cnaphalocrocis medinalis)
After air-drying, the lamina was placed in a plastic Petri dish with a diameter of 9 cm whose bottom had been covered with a wetted filter paper. The lamina was inoculated with third-instar larvae of rice leafroller, after which the dish was allowed to stand in a room thermostated at 25° C. and having a humidity of 70%. Four days after the inoculation, the dead and alive were counted and the insecticidal effect was judged according to the criterion shown in Test Example 1. The test was carried out with triplicate groups of 10 insects.

[3] = third-instar larvae of rice leafroller
[4] = rice leafroller third-instar larvae

Row | SMILES | Insecticidal effect, Test Example 1 [1] | Insecticidal effect, Test Example 3 [2, 3] | Insecticidal effect, Test Example 3 [2, 4] | also measured
1 | CC(C)NC(=O)c1cccc(Br)c1C(=O)Nc1ccc(OC(F)(F)F)cc1 [Compound No. 302, 6-bromo-N^1-(4-trifluoromethoxyphenyl)-N^2-isopropylphthalic acid diamide] | A (100) | D (79-50) |  | 
2 | CNC(=O)c1c(C(=O)Nc2ccc(OC(F)F)cc2C)cccc1[N+](=O)[O-] [compound 4] | A (100) | D (79-50) |  | 
3 | CCNC(=O)c1cccc(Cl)c1C(=O)Nc1ccc(OC(F)F)cc1C [compound 9] | A (100) | A (100) |  | 
4 | CCN(CC)C(=O)c1c(C(=O)Nc2cc(Cl)ccc2C)cccc1[N+](=O)[O-] [compound 13] | D (79-50) | D (79-50) |  | 
5 | CCCNC(=O)c1c(Cl)cccc1C(=O)Nc1ccc(OC(F)F)cc1C [compound 15] | A (100) | A (100) |  | 
6 | CCCNC(=O)c1c(C(=O)Nc2ccc(OC(F)F)cc2C)cccc1[N+](=O)[O-] [compound 17] | A (100) | D (79-50) |  | 
7 | CCCNC(=O)c1c(C(=O)Nc2cc(Cl)ccc2C)cccc1[N+](=O)[O-] [compound 18] | D (79-50) | A (100) |  | 
8 | CC(C)NC(=O)c1ccccc1C(=O)Nc1ccc(F)cc1 [compound 23] | A (100) | D (79-50) |  | 
9 | Cc1ccccc1NC(=O)c1ccccc1C(=O)NC(C)C [compound 24] | A (100) | D (79-50) |  | 
10 | CC(C)NC(=O)c1ccccc1C(=O)Nc1ccc(C(F)(F)F)cc1 [compound 25] | A (100) | A (100) |  | 
11 | CC(C)NC(=O)c1ccccc1C(=O)Nc1cccc(C(F)(F)F)c1 [compound 26] | A (100) | D (79-50) |  | 
12 | CC(C)NC(=O)c1ccccc1C(=O)Nc1cccc(Cl)c1Cl [compound 41] | A (100) | A (100) |  | 
13 | CC(C)NC(=O)c1ccccc1C(=O)Nc1ccc(C(F)(F)F)cc1Cl [compound 45] | A (100) | A (100) |  | 
14 | CC(C)NC(=O)c1ccccc1C(=O)Nc1ccc(C(F)(C(F)(F)F)C(F)(F)F)cc1Cl [compound 46] | A (100) | B (99-90) |  | 
15 | Cc1ccc(Cl)cc1NC(=O)c1ccccc1C(=O)NC(C)C [compound 51] | A (100) | A (100) |  | 
16 | Cc1ccc(F)cc1NC(=O)c1ccccc1C(=O)NC(C)C [compound 53] | A (100) | A (100) |  | 
17 | COCOc1ccc(NC(=O)c2ccccc2C(=O)NC(C)C)c(C)c1 [compound 69] | A (100) | A (100) |  | 
18 | CSCOc1ccc(NC(=O)c2ccccc2C(=O)NC(C)C)c(C)c1 [compound 70] | A (100) | A (100) |  | 
19 | Cc1cc(Oc2ccc(C(F)(F)F)cc2Cl)ccc1NC(=O)c1ccccc1C(=O)NC(C)C [compound 75] | A (100) | A (100) |  | 

Row | SMILES | Insecticidal effect, Test Example 1 [1] | Insecticidal effect, Test Example 3 [2, 3] | Insecticidal effect, Test Example 3 [2, 4] | also measured
20 | Cc1cc(OCc2ccc(Cl)cc2)ccc1NC(=O)c1ccccc1C(=O)NC(C)C [compound 76] | C (89-80) | B (99-90) |  | 
21 | CC(C)NC(=O)c1ccccc1C(=O)Nc1ccc2c(c1)nc(C(F)(F)F)n2C [compound 86] | B (99-90) | B (99-90) |  | 
22 | CCCCc1ccc(NC(=O)c2cccc(Cl)c2C(=O)NC(C)C)cc1 [compound 87] | A (100) | A (100) |  | 
23 | CC(C)NC(=O)c1c(Cl)cccc1C(=O)Nc1ccc(SC(F)F)cc1 [compound 98] | A (100) | C (89-80) |  | 
24 | CC(C)NC(=O)c1cccc(I)c1C(=O)Nc1ccc(OC(F)(F)F)cc1 [compound 418] |  | A (100) |  | 
25 | CC(C)NC(=O)c1cccc(F)c1C(=O)Nc1ccc(C(F)(F)C(F)(F)C(F)(F)C(F)(F)F)cc1 [compound 536] |  |  |  | Insecticidal effect on rice leafroller (Test Example 3), judged grade [2]: A (100)
26 | CCCCc1ccc(NC(=O)c2cccc([N+](=O)[O-])c2C(=O)NC(C)C)cc1 [compound 605] |  |  |  | Insecticidal effect on rice leafroller (Test Example 3), judged grade [2]: C (89-80)
27 | CC(C)NC(=O)c1c(C(=O)Nc2cccc3c2CCC3)cccc1[N+](=O)[O-] [compound 735] |  |  |  | Insecticidal effect on rice leafroller (Test Example 3), judged grade [2]: D (79-50)
28 | Cc1cc(Cl)ccc1NC(=O)c1cccc(C(F)(F)F)c1C(=O)NC(C)C [compound 758] |  |  |  | Insecticidal effect on rice leafroller (Test Example 3), judged grade [2]: A (100)
29 | Cc1cc(OC(F)F)ccc1NC(=O)c1cccc(C(F)(F)F)c1C(=O)NC(C)C [compound 759] |  |  |  | Insecticidal effect on rice leafroller (Test Example 3), judged grade [2]: D (79-50)
30 | Cc1c(Cl)cccc1NC(=O)c1c(C(=O)NC(C)C)cccc1C(F)(F)F [compound 765] |  |  |  | Insecticidal effect on rice leafroller (Test Example 3), judged grade [2]: A (100)
31 | Cc1cc(Br)ccc1NC(=O)c1cccc([S+](C)[O-])c1C(=O)NC(C)C (stereo not shown) [compound 790] |  |  |  | Insecticidal effect on rice leafroller (Test Example 3), judged grade [2]: A (100)
32 | Cc1cc(OC(F)F)ccc1NC(=O)c1c(SCC(F)(F)F)cccc1C(=O)NC(C)C [compound 798] |  |  |  | Insecticidal effect on rice leafroller (Test Example 3), judged grade [2]: A (100)
33 | Cc1cc(OC(F)F)ccc1NC(=O)c1c(C(=O)NC(C)C)cccc1[S+]([O-])CC(F)(F)F (stereo not shown) [compound 800] |  |  |  | Insecticidal effect on rice leafroller (Test Example 3), judged grade [2]: C (89-80)
34 | Cc1cc(SC(F)(F)C(F)(F)F)ccc1NC(=O)c1c(I)cccc1C(=O)NC(C)C [compound 910] |  |  |  | Insecticidal effect on rice leafroller (Test Example 3), judged grade [2]: A (100)
35 | CCCCCCNC(=O)c1cccc(I)c1C(=O)Nc1ccc(C(F)(F)C(F)(F)F)cc1C [compound 950] |  |  | C (89-80) | 
36 | Cc1cc(C(F)(F)C(F)(F)F)ccc1NC(=O)c1c(I)cccc1C(=O)NCCC(C)C [compound 1016] |  |  | A (100) | 
37 | CCC(C)CNC(=O)c1cccc(I)c1C(=O)Nc1ccc(C(F)(F)C(F)(F)F)cc1C (stereo not shown) [compound 1027] |  |  | A (100) | 
38 | Cc1cc(C(F)(F)C(F)(F)F)ccc1NC(=O)c1c(I)cccc1C(=O)N(C(C)C)C(C)C [compound 1072] |  |  | A (100) | 

Row | SMILES | Insecticidal effect, Test Example 1 [1] | Insecticidal effect, Test Example 3 [2, 3] | Insecticidal effect, Test Example 3 [2, 4] | also measured
39 | CCN(CC)C(=O)c1cccc([N+](=O)[O-])c1C(=O)Nc1ccc(Cl)cc1C [compound 1138] |  |  | A (100) | 
40 | Cc1cc(C(F)(F)C(F)(F)F)ccc1NC(=O)c1c(I)cccc1C(=O)N1CC(C)CC(C)C1 (stereo not shown) [compound 1140] |  |  | A (100) | 
41 | Cc1cc(OC(F)(F)F)ccc1NC(=O)c1cc(Cl)cc(Cl)c1C(=O)NC(C)C [compound 1224] |  |  | B (99-90) | 
42 | Cc1cc(C(F)(F)C(F)(F)F)ccc1NC(=O)c1cc(Cl)cc(Cl)c1C(=O)NC(C)C [compound 1225] |  |  | A (100) | 
43 | Cc1cc(C(F)(C(F)(F)F)C(F)(F)F)ccc1NC(=O)c1cc(Cl)cc(Cl)c1C(=O)NC(C)C [compound 1226] |  |  | A (100) | 
44 | COC(Oc1ccc(NC(=O)c2cccc(Cl)c2C(=O)NC(C)C)c(C)c1)=C(C(F)(F)F)C(F)(F)F [compound 1293] |  |  | A (100) | 
45 | Cc1cc(C#CC(C)(C)C)ccc1NC(=O)c1c(I)cccc1C(=O)NC(C)C [compound 1306] |  |  | A (100) | 
46 | Cc1cc(C(F)(F)C(F)(F)F)ccc1NC(=O)c1c(Cl)cccc1C(=O)NCc1ccccc1 [compound 1308] |  |  | C (89-80) | 
47 | Cc1cc(C(F)(F)C(F)(F)F)ccc1NC(=O)c1c(Cl)cccc1C(=O)NCc1ccccc1Cl [compound 1310] |  |  | B (99-90) | 
48 | Cc1cc(C(F)(F)C(F)(F)F)ccc1NC(=O)c1c(Cl)cccc1C(=O)NCc1ccc(Cl)cc1Cl [compound 1350] |  |  | A (100) | 
49 | Cc1cc(C(F)(F)C(F)(F)F)ccc1NC(=O)c1c(Cl)cccc1C(=O)NCCc1ccc(Cl)cc1 [compound 1361] |  |  | A (100) | 
50 | Cc1cc(C(F)(F)C(F)(F)F)ccc1NC(=O)c1c(Cl)cccc1C(=O)NC(CO)c1ccc(Cl)cc1 (stereo not shown) [compound 1416] |  |  | A (100) | 
51 | Cc1cc(OC(F)F)ccc1NC(=O)c1cccc(I)c1C(=O)NCc1ccccc1Cl [compound 1432] |  |  | A (100) | 
52 | Cc1cc(C(F)(F)C(F)(F)F)ccc1NC(=O)c1c(Cl)cccc1C(=O)NC(C)(C)C#Cc1ccccc1 [compound 1480] |  |  |  | Insecticidal effect (Test Example 3), judged from mortality [2, 3]: A (100)
53 | Cc1cc(OC(F)(F)F)ccc1NC(=O)c1c(I)cccc1C(=O)NC(C)(C)CO [compound 1520] |  |  |  | Insecticidal effect (Test Example 3), judged from mortality [2, 3]: A (100)
54 | Cc1ccc(C#CC(C)(C)NC(=O)c2c(Cl)cccc2C(=O)Nc2ccc(C(F)(F)C(F)(F)F)cc2C)cc1 [compound 1570] |  |  |  | Insecticidal effect (Test Example 3), judged from mortality [2, 3]: A (100)
55 | Cc1c(NC(=O)c2cccc(I)c2C(=O)NC(C)C)ccc(C(F)(F)C(F)(F)F)c1C [compound 1640] |  |  |  | Insecticidal effect (Test Example 3), judged from mortality [2, 3]: A (100)
56 | Cc1cc(C(F)(F)C(F)(F)F)c(C)cc1NC(=O)c1cccc(I)c1C(=O)NC(C)C [compound 1655] |  |  |  | Insecticidal effect (Test Example 3), judged from mortality [2, 3]: A (100)
